How the values were obtained:
Type in all cases: cell-based, human
[1] = system: MCF-7 cells; assay: Anti-proliferative activity, SRB assay, MCF-7; details: for IC50: SRB assay, 72 h exposure, mean ± SD of three separate experiments; for MCF-7 SI (selectivity index): ratio of IC50 for normal cells (WI-38) to IC50 for MCF-7
Excerpt: Several of these derivatives were reported as acting as competitive inhibitors of different tyrosine kinases, with potent cytotoxic activity against various cell lines[58]^,[59]. […] Thus, in this study a novel series of benzoxazole-benzamide conjugates was initially evaluated for their potential anti-cancer activity against colon cancer cell line (HCT-116), breast cancer cell line (MCF-7) and normal human fibroblasts (WI-38), using the Sulforhodamine B colorimetric (SRB) assay.
2.1. Anti-proliferative activity against HCT-116 and MCF-7 human cancer cells lines.
The sulforhodamine B (SRB) assays were performed according to Skehan et al..
Briefly, exponentially growing cells were trypsinized, counted and seeded at the appropriate densities (5000 cells/100 μL/ well) into 96-well microtiter plates. Cells were incubated in a humidified atmosphere at 37 °C for 24 h. Then, the cells were exposed to the tested compounds at the desired concentrations (0.01, 0.1, 1, 10, and 100 μM) or to 1% dimethyl sulfoxide (DMSO) for 72 h. At the end of the treatment period, the media were removed, and the cells were fixed with 10% trichloroacetic acid at 4 °C for 1 h. Following, the cells were washed with tap water four times and incubated with SRB 0.4% for 30 min. Excess dye was removed by washing repeatedly with 1% (vol/vol) acetic acid. The protein-bound dye was dissolved in 10 mM Tris base solution for (optical density) OD determination at 510 nm using a Spectra Max plus Microplate Reader (Molecular Devices, CA). Cell viability was expressed relative to the untreated control cells. […]

[2] = system: HCT-116 cells; assay: Annexin V-FITC/PI apoptosis assay, HCT-116; details: for increase in total apoptosis compared to the control: HCT-116; for %Apoptosis %Early / %Apoptosis %Late / %Necrosis: HCT-116, 48 h incubation; for %Apoptosis %Early: control 1.1; for %Apoptosis %Late: control 1.57; for %Necrosis: control 1.85
Protocol: 2.4. Annexin V-FITC/PI apoptosis assay.
For this study, annexin V-FITC / PI apoptosis detection kit was used; HCT -116 and MCF-7 cells were stained with annexin V fluorescein isothiocyanate (FITC) and propidium iodide (PI) counter-stained.1 x 10^5 HCT-116 cells were 48 h incubated with compound 1 or 11, trypsinized, washed with phosphate-buffered saline (PBS), stained in the dark at 37 °C for 15 min utes.
Finally, the cells analyzed with a cytometer of FACS Caliber flow.

[3] = system: Bcl-2; assay: Western blot of Bcl-2 expression in HCT-116; details: HCT-116, Western blot, normalised to β-actin
Excerpt: It is well known that the anti-apoptotic proteins Bcl-2 and Bcl-xL are mainly overexpressed in various types of cancer, causing survival of cancer cells and/or drug resistance. Therefore, inhibition of these proteins expression leads to cancer cell death and has been used as a strategy for anticancer drug development. In this study, the impact of compounds 1 and 11 on Bcl-2 and Bcl-xL expression in HCT-116 and MCF-7 cancer cell lines was examined using Western blot analysis and all the data were normalised to β-actin (Figure 9).
2.5. Impact of compounds 1 and 11 on the level of anti-apoptotic markers (Bcl-2, and Bcl-xL).
Gel electrophoresis and immuno-blot analysis of proteins (Western Blot) method was used to examine the effect of compounds 1 and 11 on the level of anti-apoptotic markers (Bcl-2, and Bcl-xL). […]
The cells were then immediately frozen at −20 °C for 1 h for further lysis and collected by cell scraper and sonicated 2×10s. Total protein concentrations were determined colorimetrically using Bradford method before proceeding to the western blotting. […] Briefly, the membranes were incubated for 1 min with a mixture of equal volumes from ECL solution A and ECL solution B. The chemiluminescent signals were captured using a CCD camera-based imager (Chemi Doc imager, Biorad, USA), and the band intensities were then measured with β-actin as an internal reference protein. […]

| Structure (SMILES) | IC50 ([1]; Homo sapiens, MCF7, 72 h) [µM] | MCF-7 SI (selectivity index) [1] | increase in total apoptosis compared to the control [2] | %Apoptosis %Early [2] [%] | %Apoptosis %Late [2] [%] | %Necrosis [2] [%] | Bcl-2 expression [3] | IC50 [1] [µM] |
| --- | --- | --- | --- | --- | --- | --- | --- | --- |
| O=C(CSc1nc2cc(Cl)ccc2o1)Nc1ccc(C(=O)Nc2ccc(Cl)cc2)cc1 [Compound 11] | 16.6 ± 0.013 | 6.2 | ~3.9 fold | 6.01 | 9.62 | 1.78 | inhibited | – |
| O=C(CSc1nc2ccccc2o1)Nc1ccc(C(=O)NC2CCCCC2)cc1 [Compound 1] | 7.8 ± 0.015 | 5.8 | approximately 3.4 fold | 4.86 | 8.95 | 1.55 | inhibited | 7.2 ± 0.01 |

— PMC9176662, “Design, synthesis, molecular modeling and biological evaluation of novel Benzoxazole-Benzamide conjugates via a 2-Thioacetamido linker as potential anti-proliferative agents, VEGFR-2 inhibitors and apoptotic inducers” (Journal of Enzyme Inhibition and Medicinal Chemistry, 2022)
